Assay results taken from patent publication US5089516A, “1-phenyl-3,5-pyrazolidinedione hydroxystyrene compounds which have tyrosine kinase inhibiting activity” (Kanegafuchi Kagaku Kogyo Kabushiki Kaisha, priority 1987, dated 1992).

What was measured:
[1] = biological target: T1, epidermal growth factor receptor-tyrosine kinase complex (Homo sapiens, UniProt P00533); test: Tyrosine kinase inhibiting activity (A-431 membrane preparation, EGF-stimulated); type: biochemical; conditions: read-out: Tyrosine kinase inhibition rate; for inhibition at 1 µM: 1 μM in the reaction mixture; for inhibition at 10 µM: 10 μM in the reaction mixture
T1 construct: The membrane preparation was employed in the following measurement without solubilization; endogenous in cells; host or cells: A-431 (ATCC CRL1555), membrane preparation, not solubilized
Method: Tyrosine kinase inhibiting activity of the compound of the present invention was measured referring to a method for measuring tyrosine kinase activity by G. Carpenter or by S. Cohen et al. [J. Biol. Chem., 254, 4884(1979); J. Biol. Chem., 257, 1528(1982)].
Cell line A-431 derived from human carcinoma (ATCC CRL1555) was cultured at 37° C. under the condition of 5% CO2 in Dulbecco's modified Eagle's medium (made by NISSUE PHARMACEUTICAL CO., LTD.) containing 10% by volume fetal bovine serum, 50 μg/ml of streptomycin, 50 IU/ml of penicillin G and 50 μg/ml of kanamycin. […] The membrane preparation was employed in the following measurement without solubilization.
A test compound dissolved in dimethylsulfoxide (hereinafter referred to as "DMSO") was added to a mixture of 20 mM of N-2-hydroxyethylpiperazine-N'-2-ethanesulfonic acid buffer (pH 7.4), 1 mM of MnCl2, 7.5 μg of bovine serium albumin and the membrane preparation (10 μg as protein). After incubation at 0° C. for 5 minutes, 100 ng of epidermal growth factor (hereinafter referred to as "EGF") was added thereto and the mixture was further incubated at 0° C. for 15 minutes. [γ-^32 P]ATP (3000 Ci/mmol, 0.1 μCi) was added thereto to make final volume of 70 μl. After incubation at 0° C. for 15 minutes, 50 μl of the reaction mixture was soaked into Whatman 3 MM filter paper (made by Whatman Ltd.) and immediately the reaction was stopped by an aqueous solution of 10% by weight trichloroacetic acid containing 10 mM sodium pyrophosphate. The filter paper was sufficiently washed with the same solution and then washed with ethanol, and dried. Radioactivity present in the filter paper was measured by liquid scintillation counter (A). Also, radioactivity was measured in case of the reaction without EGF (B), the reaction without the test compound (C), and the reaction without both EGF and the test compound (D) as a control.
Tyrosine kinase inhibition rate (%) was calculated by the following equation. [formula]

[2] = test system: Nycobacterium smegmatis ATCC 607; test: Antibacterial activity (MIC) against acid-fast bacteria; type: cell-based; conditions: 37° C., 40 to 42 hours
Method: As for acid-fast bacteria, after cultured in glycerol broth medium, there was prepared a bacterial suspension for inoculation containing about 10^6 of the bacteria per 1 ml of the medium. On the other hand, there were prepared some glycerol Czapek agar plating media with adding the test compounds, and thereto the bacterial suspension for inoculation was streaked.

[3] = test system: passive cutaneous anaphylaxis (PCA) reaction; test: Inhibitory activity against homologous PCA reaction in rats; type: in vivo, male Wistar rats; conditions: Rattus norvegicus, oral, read-out: Inhibition rate (PCA reaction); for inhibition in vivo at 100 mg/kg: 1 hour before antigen
Method: (1) Inhibitory activity against homologous PCA reaction in rats
Antiserum was prepared according to I. Mota [Immunology, 7, 681(1964)]and the PCA reaction was conducted according to Maruyama et al. [Folia Pharmacologica Japonica, 74, 179(1978}].
An ovalbumin solution dissolved in physiological saline (2 mg/ml) was injected intramuscularly into both thighs of male Wistar rats weighing 200 to 260 g in a volume of 0.5 ml/100 g body weight, and pertussis vaccine (Bordetella pertussis, 2×10^10 /ml/ Chiba Serum Institute) was intraperitoneally administered at 1 ml/rat. Twelve days after sensitization, blood was taken from posterior aorta under ether anesthesia and serum was separated and stored at -80° C.
In each group, 4 male Wistar rats weighing 180 to 210 g were used. Back of the rats was shaved and reach 0.05 ml of antiserum diluted 32 times with physiological saline was injected intradermally at four sites on the back. After 48 hours, 1 ml of a mixture of ovalbumin (2 mg/ml) as an antigen and Evans blue (10 mg/ml) in the volume ratio of 1 : 1, which was dissolved in physiological saline was injected intravenously into the tail. Thirty minutes later, the rats were bled to death under ether anesthesia and the back skin of the rats was removed. The blue-dyed area formed by pigment exudation was measured and an inhibition rate (%) was calculated as compared with control according to the following equation. [formula]
A test compound suspended in a 2.5 % aqueous solution of gum arabic containing 0.2 % Tween 80 was administered orally in a volume of 0.5 m:/100 g body weight 1 hour before the injection of antigen. To the control group, only the vehicle was administered. Tranilast which was a positive control compound was administered orally 30 minutes before the injection of antigen.

[4] = test system: antigen-induced anaphylactic shock death; test: Protecting effect against antigen-induced anaphylactic shock death in actively sensitized guinea pigs; type: in vivo, male guinea pigs; conditions: Cavia porcellus, 1.5 h, oral, 30 minutes before antigen inhalation
Method: (2) Protecting effect against antigen-induced anaphylactic shock death in actively sensitized guinea pigs
Anaphylactic shock death caused by inhalation of antigen was observed according to John P. Devlin Pulmonary and Antiallergic Drugs, John Wiley & Sons, (1985)] employing actively sensitized guinea pigs.
Each 100 mg/kg of body weight ovalbumin dissolved in physiological saline was injected into gluteus and into peritoneal cavity of male guinea pigs weighing 250 to 350 g. Three days later, the animals were further injected intraperitoneally with ovalbumin (100 mg/kg body weight) to conduct booster. Those animals were employed for testing 3 to 4 weeks after the sensitization.
In each group, 4 or more actively sensitized guinea pigs were pretreated by subcutaneously injecting pyrilamine (1 mg/kg body weight) 30 minutes before antigen inhalation to suppress histamine-dependent response and propranolol (1 mg/kg body weight) to enhance the response induced by other than histamine 10 minutes before the antigen inhalation.
The animal was placed in a desiccator with a capacity of about […] and 0.5% aqueous solution of ovalbumin in the state of aerosol was inhaled with ultrasonic type nebulizer for five minutes. Anaphylactic shock death was observed and the animals survived for 90 minutes or more after antigen inhalation were estimated to be protected. All the animals of the control group died due to anaphylactic shock. The compounds of the present invention and therapeutic antiasthmatic agent (tranilast, theophylline) were administered orally 30 minutes before the antigen inhalation.

[5] = test system: antigen-induced airway constriction; test: Inhibitory activity against antigen-induced airway constriction in actively sensitized guinea pigs; type: in vivo; conditions: Cavia porcellus, iv, 3 minutes before antigen inhalation, read-out: Inhibition rate (airway constriction)
Method: (3) Inhibitory activity against antigen-induced airway constriction in actively sensitized guinea pigs
That is, the sensitized guinea pigs (5 guinea pigs/group) were provided with artificial respiration by inserting a tracheal cannula under urethane anesthesia (1.5 g/kg body weight, intraperitoneal administration), and then, gallamine at 1 mg/kg body weight was injected intravenously to stop spontaneous respiration of the guinea pigs. Inhalation of 0.5% aqueous solution of ovalbumin was conducted using a nebulizer for 1 minute to increase antigen-induced airway constriction, at the same time, airway pressure was recorded through a transducer. Test compound was administered into jugular vein (i.v.) of the guinea pig 3 minutes before the antigen inhalation or administered orally (p.o.) 2 hours before the antigen inhalation. As a positive control compound, theophylline which was a drug for anti-asthma was used. The effect of the compound was estimated by calculating the maximum value of airway constriction (%) in comparison with the control group, according to the following equation. [formula]

[6] = biological target: T2, 5-lipoxygenase (Cavia porcellus, UniProt A0A286X958); test: 5-Lipoxygenase inhibiting activity (5-HETE formation, cytosol of peritoneal exudate cells); type: biochemical, Hartley guinea pigs; conditions: 10 μM in the reaction mixture; read-out: Inhibition rate (5-lipoxygenase)
T2 construct: The cytosol fraction was used as an enzyme solution; from tissue; host or cells: peritoneal exudate cells of casein-injected Hartley guinea pigs, 105,000×g cytosol
T2 sequence (A0A286X958 1-674): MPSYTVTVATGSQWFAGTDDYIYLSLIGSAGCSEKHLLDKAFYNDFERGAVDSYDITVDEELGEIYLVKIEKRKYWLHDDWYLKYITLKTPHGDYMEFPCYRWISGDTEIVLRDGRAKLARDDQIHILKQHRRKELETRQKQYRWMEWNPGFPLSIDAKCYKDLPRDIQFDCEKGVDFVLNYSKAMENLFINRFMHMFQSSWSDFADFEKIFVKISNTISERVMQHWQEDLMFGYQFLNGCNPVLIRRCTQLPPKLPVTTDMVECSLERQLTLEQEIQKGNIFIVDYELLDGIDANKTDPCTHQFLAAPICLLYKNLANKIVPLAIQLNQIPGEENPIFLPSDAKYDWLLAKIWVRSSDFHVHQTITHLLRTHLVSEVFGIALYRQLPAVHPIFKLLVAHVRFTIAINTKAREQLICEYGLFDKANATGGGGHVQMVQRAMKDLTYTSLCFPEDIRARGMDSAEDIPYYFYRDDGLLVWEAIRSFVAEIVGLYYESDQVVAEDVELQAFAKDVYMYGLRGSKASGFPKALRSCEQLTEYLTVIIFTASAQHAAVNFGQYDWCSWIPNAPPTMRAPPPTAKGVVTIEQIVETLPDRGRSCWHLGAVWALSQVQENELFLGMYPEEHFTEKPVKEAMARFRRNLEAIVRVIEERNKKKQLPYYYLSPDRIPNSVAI
Method: 5-Lipoxygenase inhibiting activity of the compound of the present invention was measured referring to the method for measuring 5-lipoxygenase activity by K. Ochi et al. [Journal of Biological Chemistry (J. Biol. Chem.), 258, 5754(1983)].
Sterilized 2% solution of casein (pH 7) was injected intraperitoneally into Hartley guinea pigs in a volume of 5 ml/100 g body weight. Fifteen hours later, the guinea pigs were killed and peritoneal exudate cells thereof were collected. After the exudate cells were washed with 17 mM Tris--HCl buffer (pH 7.4) containing 0.74% ammonium to remove contaminating erythrocytes in the exudate cells suspension, the cells were washed with buffer A (130 mM NaCl, 1 mM EDTA, 25 mM sodium phosphate, pH 7.4). The washed cells were suspended in buffer B (50 mM sodium phosphate, 1 mM EDTA, 0.1% gelatin, pH 7.4) at 10^8 cells/ml, sonicated and centrifuged at 10,000×g for 20 minutes under the cold atmosphere. The obtained supernatant was further centrifuged at 105,000×g for 60 minutes under the cold atmosphere. The cytosol fraction was used as an enzyme solution.
The enzyme solution was preincubated with the […] in the presence of 1 mM CaCl2, 1 mM reduced gluthathione (GSH) and 2 mM ATP at 30° C. for 5 minutes in 0.2 ml of a reaction mixture and the mixture was further incubated at 30° C. for 5 minutes by adding 20 μM [1-^14 C] arachidonic acid (0.1 μCi) thereto. The test compounds were dissolved in ethanol to give the reaction mixture containing 2% ethanol as a final concentration. Only ethanol was added to the reaction mixture as a control group.
To the reaction mixture were added 2.5 ml of a mixture of chloroform and methanol (2/1 by volume) and 0.3 ml of 40 mM citric acid to stop the reaction. The mixture was vortexed and an organic solvent layer was evaporated to dryness under nitrogen gas. After dissolving the dried organic layer in a fixed amount of the mixture of chloroform and methanol (2/1 by volume), it was spotted on a silica gel plate (Kiesel gel 60F254, E. Merck) and products were separated using a developer (the organic solvent layer of ethyl acetate/water/2,2,4-trimethylpentane/acetic acid=11/10/5/2 by volume). After the radioactive position of the product was determined by means of a radioautography, an area equivalent to that of 5-hydroxyeicosatetraenoic acid (hereinafter referred to as "5-HETE") was scraped off, and then its radioactivity was measured with a liquid scintillation counter. With regarding the amount of the generated 5-HETE as the 5-lipoxygenase inhibiting activity, the inhibition rate (%) in comparison with the control group was calculated according to the following equation. [formula]

T1 sequence (P00533 25-1210, one chain of several): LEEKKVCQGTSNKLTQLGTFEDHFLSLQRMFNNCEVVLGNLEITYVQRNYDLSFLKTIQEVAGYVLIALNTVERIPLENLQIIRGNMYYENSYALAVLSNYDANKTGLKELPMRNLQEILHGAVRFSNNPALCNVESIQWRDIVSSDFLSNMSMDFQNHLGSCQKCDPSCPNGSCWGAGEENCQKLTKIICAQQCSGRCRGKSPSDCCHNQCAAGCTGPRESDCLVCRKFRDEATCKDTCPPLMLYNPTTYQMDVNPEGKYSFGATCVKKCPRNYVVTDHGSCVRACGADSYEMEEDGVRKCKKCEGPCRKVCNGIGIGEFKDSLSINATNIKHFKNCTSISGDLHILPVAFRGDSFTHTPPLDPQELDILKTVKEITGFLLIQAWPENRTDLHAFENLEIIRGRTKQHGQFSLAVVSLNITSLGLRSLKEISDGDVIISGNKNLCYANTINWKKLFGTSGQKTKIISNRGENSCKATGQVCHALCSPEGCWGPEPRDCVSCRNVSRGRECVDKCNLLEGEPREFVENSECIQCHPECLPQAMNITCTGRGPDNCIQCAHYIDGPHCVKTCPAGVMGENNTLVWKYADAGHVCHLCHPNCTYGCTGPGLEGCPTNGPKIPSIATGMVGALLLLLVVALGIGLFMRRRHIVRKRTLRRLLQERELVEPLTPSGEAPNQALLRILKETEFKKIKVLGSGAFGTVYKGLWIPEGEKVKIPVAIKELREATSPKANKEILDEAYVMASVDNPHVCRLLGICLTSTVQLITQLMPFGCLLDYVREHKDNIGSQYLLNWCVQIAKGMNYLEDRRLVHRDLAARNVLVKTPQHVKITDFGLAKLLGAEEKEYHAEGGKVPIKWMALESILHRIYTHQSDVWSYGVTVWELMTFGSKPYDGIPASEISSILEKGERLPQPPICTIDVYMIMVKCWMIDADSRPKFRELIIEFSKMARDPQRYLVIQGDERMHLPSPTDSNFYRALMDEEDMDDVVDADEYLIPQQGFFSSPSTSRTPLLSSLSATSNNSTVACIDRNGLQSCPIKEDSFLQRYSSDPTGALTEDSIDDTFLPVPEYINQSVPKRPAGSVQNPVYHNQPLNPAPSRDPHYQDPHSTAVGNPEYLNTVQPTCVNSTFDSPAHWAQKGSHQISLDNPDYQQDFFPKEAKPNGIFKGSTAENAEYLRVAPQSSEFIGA

## CC(C)c1cc(C=C2SC(NCCc3ccccc3)=NC2=O)cc(C(C)C)c1O [Compound 34]
[1]
  inhibition at 1 µM: 63%
[2]
  MIC: ≤ 6 µg/mL
[3]
  inhibition in vivo at 100 mg/kg: 48%

## Cn1c(=O)c2[nH]cnc2n(C)c1=O [theophylline, reference compound]
[4]; 30 mg/kg
  responders at 30 mg/kg: 50%
[5]; 1 mg/kg
  inhibition in vivo at 1 mg/kg: 31%

## CC(C)c1cc(C=C2SC(Nc3ccccc3)=NC2=O)cc(C(C)C)c1O [Compound 32]
[1]
  inhibition at 1 µM: 74%
[2]
  MIC: ≤ 6 µg/mL
[3]
  inhibition in vivo at 100 mg/kg: 21%
[5]; 2 mg/kg
  inhibition in vivo at 2 mg/kg: 23%

## N#CC(=Cc1cc(O)c(O)c(Cc2ccccc2)c1)C(N)=O [Compound 23]
[1]
  inhibition at 10 µM: 60%
[3]
  inhibition in vivo at 100 mg/kg: 29%
[6]
  inhibition at 10 µM: 85%

## COc1ccc(/C=C/C(=O)Nc2ccccc2C(=O)O)cc1OC [tranilast, reference compound]
[4]
  responders at 100 mg/kg: 0%
[3]; 300 mg/kg, 30 minutes before antigen, positive control
  inhibition in vivo at 300 mg/kg: 40%

## COc1ccc(CNC2=NC(=O)C(=Cc3cc(C(C)C)c(O)c(C(C)C)c3)S2)cc1 [Compound 38]
[1]
  inhibition at 10 µM: 85%
[4]
  responders at 100 mg/kg: 25%
[6]
  inhibition at 10 µM: 88%

## CC(C)c1cc(C=C2SC(NCc3ccc(Cl)cc3)=NC2=O)cc(C(C)C)c1O [Compound 36]
[1]
  inhibition at 10 µM: 59%
[4]
  responders at 100 mg/kg: 25%
[6]
  inhibition at 10 µM: 84%
